Measurements published in article PMC3725505 (Scientific Reports, 2013).

Biological target: Kelch domain of human Keap1 (residues 321–609) (Homo sapiens, UniProt Q14145)
Experiment: Isothermal titration calorimetry
Assay type: binding
Conditions: ITC, pH 7; for TΔS (entropy term upon binding) / ΔG (change in Gibbs free energy upon binding) / ΔH (change in enthalpy upon binding): T = 298.15 K, 50 mM sodium phosphate, 100 mM NaCl, 1 mM DTT, Table 1 set; for Kd: Kd to Kelch, 25°C

Chain of Kelch domain of human Keap1 (residues 321–609) (Q14145 321-609): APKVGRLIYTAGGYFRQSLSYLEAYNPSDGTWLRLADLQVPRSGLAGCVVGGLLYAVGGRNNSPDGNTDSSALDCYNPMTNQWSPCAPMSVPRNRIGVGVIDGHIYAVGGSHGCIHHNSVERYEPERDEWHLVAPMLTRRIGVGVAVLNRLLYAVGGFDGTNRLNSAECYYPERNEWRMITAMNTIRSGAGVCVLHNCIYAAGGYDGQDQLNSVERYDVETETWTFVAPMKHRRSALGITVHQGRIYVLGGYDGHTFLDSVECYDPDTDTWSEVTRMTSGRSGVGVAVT

Row | Molecule | TΔS (entropy term upon binding) [kcal/mol] | ΔG (change in Gibbs free energy upon binding) [kcal/mol] | ΔH (change in enthalpy upon binding) [kcal/mol] | Kd [nM]
1 | CC[C@H](C)[C@H](NC(=O)[C@@H]1CCCN1C(=O)[C@H](CC(C)C)NC(=O)[C@H](Cc1ccccc1)NC(=O)[C@H](CCC(=O)O)NC(=O)CNC(=O)[C@@H](NC(=O)[C@H](CCC(=O)O)NC(=O)[C@H](CCC(=O)O)NC(=O)[C@H](CC(=O)O)NC(=O)[C@H](CC(C)C)NC(=O)[C@H](CCC(N)=O)NC(=O)[C@H](CC(C)C)NC(=O)[C@H](CCC(N)=O)NC(=O)[C@H](C)NC(=O)[C@H](Cc1ccccc1)NC(C)=O)[C@@H](C)O)C(=O)N[C@@H](CCC(N)=O)C(=O)N1CCC[C@H]1C(=O)N[C@@H](C)C(=O)N[C@@H](CCC(N)=O)C(N)=O [NRF2 site 1] | -6.56 | -10.40 ± 0.03 | -16.96 ± 0.05 | 
2 | CSCC[C@H](NC(=O)[C@H](CCC(N)=O)NC(=O)[C@H](CC(C)C)NC(=O)[C@H](CO)NC(=O)[C@H](CCC(N)=O)NC(=O)[C@H](CC(C)C)NC(=O)[C@H](CCC(=O)O)NC(=O)CNC(=O)[C@@H](NC(=O)[C@H](CO)NC(=O)[C@@H]1CCCN1C(=O)[C@H](CC(=O)O)NC(=O)[C@@H](NC(=O)[C@H](CCC(=O)O)NC(=O)[C@H](CCCCN)NC(=O)[C@H](CO)NC(=O)[C@H](CO)NC(=O)[C@H](CC(C)C)NC(C)=O)C(C)C)[C@@H](C)O)C(=O)N1CCC[C@H]1C(=O)N[C@@H](CCC(=O)O)C(N)=O [p62] | -10.34 | -8.04 ± 0.03 | -18.38 ± 0.07 | > 1000
3 | Ac-ANGNAENEENGEQEADNEVD-NH2 [PTMA iso 1] | -8.02 | -6.72 ± 0.05 | -14.74 ± 0.12 | 
4 | Ac-ANGNANEENGEQEADNEVD-NH2 [PTMA iso 2] | -9.69 | -7.60 ± 0.03 | -17.29 ± 0.06 | 
5 | Ac-FAQLQLDPETGEFLPIQPAQ-NH2 [NRF2 site 1 E78P] | -5.64 | -11.12 ± 0.03 | -16.76 ± 0.05 | 
6 | Ac-INVRKRNVESGEEELASKLD-NH2 [PGAM5] | -10.05 | -9.07 ± 0.03 | -19.12 ± 0.06 | 
7 | Ac-SLEEPHSPETGEKVVAGEVN-NH2 [WTX] | -9.03 | -9.01 ± 0.04 | -18.04 ± 0.09 | 100 to 200
